The source of these data is ChEMBL document CHEMBL1201862, “PubChem BioAssay data set” (2004).

What all share (assay type): functional
Assay [1] concerns the target T1, Apoptotic protease-activating factor 1 (Homo sapiens, UniProt O14727).
T1 sequence (O14727 whole entry): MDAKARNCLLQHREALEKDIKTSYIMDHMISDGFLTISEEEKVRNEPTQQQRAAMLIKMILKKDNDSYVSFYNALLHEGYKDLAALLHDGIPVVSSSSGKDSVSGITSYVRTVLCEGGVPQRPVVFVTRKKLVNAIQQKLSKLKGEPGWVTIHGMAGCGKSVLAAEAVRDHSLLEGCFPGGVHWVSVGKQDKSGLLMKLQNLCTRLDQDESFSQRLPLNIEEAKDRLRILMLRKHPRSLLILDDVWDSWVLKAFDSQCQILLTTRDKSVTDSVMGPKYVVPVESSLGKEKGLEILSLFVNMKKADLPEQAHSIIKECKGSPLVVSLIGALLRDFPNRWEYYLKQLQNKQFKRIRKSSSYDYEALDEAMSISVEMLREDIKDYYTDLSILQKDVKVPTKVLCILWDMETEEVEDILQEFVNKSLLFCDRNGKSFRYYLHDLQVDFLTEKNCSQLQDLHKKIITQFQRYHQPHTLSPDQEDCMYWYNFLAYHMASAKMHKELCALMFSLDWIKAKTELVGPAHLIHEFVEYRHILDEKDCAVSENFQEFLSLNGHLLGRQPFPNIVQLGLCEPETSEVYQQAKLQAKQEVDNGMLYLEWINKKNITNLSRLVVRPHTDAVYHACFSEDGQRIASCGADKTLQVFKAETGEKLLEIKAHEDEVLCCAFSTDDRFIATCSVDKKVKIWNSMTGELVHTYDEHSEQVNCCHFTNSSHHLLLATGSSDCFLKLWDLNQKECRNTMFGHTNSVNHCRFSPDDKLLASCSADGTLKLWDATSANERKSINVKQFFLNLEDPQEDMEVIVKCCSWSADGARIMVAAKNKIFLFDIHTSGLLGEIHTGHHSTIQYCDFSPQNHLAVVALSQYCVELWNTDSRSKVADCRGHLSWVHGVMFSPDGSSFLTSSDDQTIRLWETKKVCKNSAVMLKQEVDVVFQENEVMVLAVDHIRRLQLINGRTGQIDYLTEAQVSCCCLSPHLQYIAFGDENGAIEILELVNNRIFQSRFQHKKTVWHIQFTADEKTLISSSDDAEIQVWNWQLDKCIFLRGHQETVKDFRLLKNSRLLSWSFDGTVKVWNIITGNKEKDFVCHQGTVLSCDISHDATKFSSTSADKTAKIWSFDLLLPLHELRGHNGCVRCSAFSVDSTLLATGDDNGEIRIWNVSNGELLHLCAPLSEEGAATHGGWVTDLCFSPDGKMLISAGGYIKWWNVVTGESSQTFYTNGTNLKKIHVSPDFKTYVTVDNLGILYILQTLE

Assay [2] concerns the target Leukocyte tyrosine kinase receptor (Homo sapiens, UniProt P29376). As to the kind of experiment: Navigating the Kinome. Panel member name: LTK.
Assay [3] has as its target Mitogen-activated protein kinase 8 (Homo sapiens, UniProt P45983).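 Note: value comes from one member of a kinome-wide kinase profiling panel.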
Assay [4] addresses T2, Receptor-type tyrosine-protein kinase FLT3 (Homo sapiens, UniProt P36888).
T2 sequence (P36888 whole entry): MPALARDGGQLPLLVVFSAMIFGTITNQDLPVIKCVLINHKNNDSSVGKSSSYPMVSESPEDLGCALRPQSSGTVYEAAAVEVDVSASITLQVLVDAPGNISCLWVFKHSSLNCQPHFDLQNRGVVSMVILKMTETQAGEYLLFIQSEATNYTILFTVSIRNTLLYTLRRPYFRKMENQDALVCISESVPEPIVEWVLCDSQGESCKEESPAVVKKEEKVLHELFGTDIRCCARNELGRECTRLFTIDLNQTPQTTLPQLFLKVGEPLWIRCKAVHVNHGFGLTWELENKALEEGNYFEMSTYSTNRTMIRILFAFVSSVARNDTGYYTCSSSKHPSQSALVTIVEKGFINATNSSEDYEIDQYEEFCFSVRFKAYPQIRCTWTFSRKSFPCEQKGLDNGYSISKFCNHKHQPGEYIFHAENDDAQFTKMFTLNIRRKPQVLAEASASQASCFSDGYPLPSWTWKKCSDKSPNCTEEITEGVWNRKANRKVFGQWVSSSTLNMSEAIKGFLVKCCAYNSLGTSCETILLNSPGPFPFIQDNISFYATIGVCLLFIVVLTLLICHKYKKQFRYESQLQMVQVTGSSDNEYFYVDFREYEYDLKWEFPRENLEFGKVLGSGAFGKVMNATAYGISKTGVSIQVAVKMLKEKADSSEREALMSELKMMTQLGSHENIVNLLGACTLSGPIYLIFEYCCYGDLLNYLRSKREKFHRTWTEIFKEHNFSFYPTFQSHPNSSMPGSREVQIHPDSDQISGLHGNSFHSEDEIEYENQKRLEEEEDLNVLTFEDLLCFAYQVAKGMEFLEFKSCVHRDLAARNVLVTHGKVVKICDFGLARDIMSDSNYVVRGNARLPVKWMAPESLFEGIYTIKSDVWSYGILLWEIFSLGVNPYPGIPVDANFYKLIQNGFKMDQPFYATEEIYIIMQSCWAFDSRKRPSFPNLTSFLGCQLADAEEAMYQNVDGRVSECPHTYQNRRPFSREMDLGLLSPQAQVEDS

Structures are written as SMILES. Calls of active or inactive are those of the source. Bounds are passed on as bounds.

Sequence of Mitogen-activated protein kinase 8 (P45983 whole entry): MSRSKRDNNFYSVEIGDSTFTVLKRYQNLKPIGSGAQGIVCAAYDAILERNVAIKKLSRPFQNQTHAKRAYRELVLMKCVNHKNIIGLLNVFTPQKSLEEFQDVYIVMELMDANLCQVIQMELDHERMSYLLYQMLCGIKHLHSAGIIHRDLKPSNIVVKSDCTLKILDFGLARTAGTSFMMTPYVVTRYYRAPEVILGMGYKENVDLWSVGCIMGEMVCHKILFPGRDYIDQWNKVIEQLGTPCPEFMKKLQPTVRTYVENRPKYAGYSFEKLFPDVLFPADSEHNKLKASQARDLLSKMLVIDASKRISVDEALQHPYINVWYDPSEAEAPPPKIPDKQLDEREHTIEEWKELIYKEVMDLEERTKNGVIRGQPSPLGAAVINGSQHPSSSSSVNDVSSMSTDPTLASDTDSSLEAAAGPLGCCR
Sequence of Leukocyte tyrosine kinase receptor (P29376 whole entry): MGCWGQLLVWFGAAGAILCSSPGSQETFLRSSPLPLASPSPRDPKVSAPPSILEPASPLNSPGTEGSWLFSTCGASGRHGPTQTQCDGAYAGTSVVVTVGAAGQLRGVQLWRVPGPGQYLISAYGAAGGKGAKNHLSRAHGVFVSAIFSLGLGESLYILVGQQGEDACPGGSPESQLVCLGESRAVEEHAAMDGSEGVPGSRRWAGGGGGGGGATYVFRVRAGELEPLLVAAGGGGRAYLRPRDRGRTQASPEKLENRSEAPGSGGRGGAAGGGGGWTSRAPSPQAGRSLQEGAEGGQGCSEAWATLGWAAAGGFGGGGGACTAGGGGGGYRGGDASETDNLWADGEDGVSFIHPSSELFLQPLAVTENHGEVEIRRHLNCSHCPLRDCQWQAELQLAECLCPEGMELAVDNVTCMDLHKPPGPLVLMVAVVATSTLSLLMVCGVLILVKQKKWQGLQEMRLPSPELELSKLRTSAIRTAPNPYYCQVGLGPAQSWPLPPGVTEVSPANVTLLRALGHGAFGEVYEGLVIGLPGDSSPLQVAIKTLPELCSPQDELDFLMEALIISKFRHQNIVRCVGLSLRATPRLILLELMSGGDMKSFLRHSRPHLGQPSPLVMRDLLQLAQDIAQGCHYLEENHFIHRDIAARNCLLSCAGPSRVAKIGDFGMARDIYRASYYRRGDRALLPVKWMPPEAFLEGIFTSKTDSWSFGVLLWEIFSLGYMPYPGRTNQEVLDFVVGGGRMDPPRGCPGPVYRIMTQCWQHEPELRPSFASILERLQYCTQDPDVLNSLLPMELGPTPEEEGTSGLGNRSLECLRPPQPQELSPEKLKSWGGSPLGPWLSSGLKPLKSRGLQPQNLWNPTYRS

For orientation: IC50 means the concentration that gives 50% inhibition. Take `O=C(Cc1ccccc1)NC1(O)C(=O)c2ccccc2C1=O`: the 50% inhibitory concentration (IC50) in assay [1] was 11 µM (active). For orientation: Ki means the equilibrium dissociation constant of an inhibitor or competing ligand from its target. Consider `O=c1[nH]c2cc(Br)cnc2[nH]1`, for which the Ki in assay [2] was 7.94 µM (active). As for `O=C(Nc1cccc(C(F)(F)F)n1)Nc1ccnc2cc(OC(F)F)ccc12`, the Ki in assay [3] is > 5.01 µM (inactive); in assay [4] it was > 3.16 µM (inactive); in assay [2], > 2.51 µM (inactive).

For the compound `O=C(Nc1cccc(C(F)(F)F)n1)Nc1ccnc2cc(Cl)ccc12`, the figures for the Ki in assay [3], in assay [4] and in assay [2] were > 5.01 µM (inactive), > 3.16 µM (inactive) and > 2.51 µM (inactive), respectively. For the compound `CCC1CC(NS(=O)(=O)C2CC2)CC1c1ncc2cnc3[nH]ccc3n12` (stereo not drawn), the Ki was > 5.01 µM (inactive) in assay [3], > 3.16 µM (inactive) in assay [4] and 0.2 µM (active) in assay [2]. Turning to `Cc1cc(C)c(S(=O)(=O)/N=C2\C=C(Nc3ccc(C(=O)O)cc3)C(=O)c3ccccc32)c(C)c1`, in assay [1], the half-maximal inhibitory concentration (IC50) is 6.01 µM (active). `COC(=O)c1nc(-c2ccc3c(n2)C(=O)C(=N)C(OC)=C3O)c(N)c(-c2ccc(OC)c(OC)c2O)c1C`: the IC50 in assay [1] was 3.39 µM (active).
